The target in this assay is T1, thromboxane synthetase from rabbit platelet microsomes (Oryctolagus cuniculus, UniProt G1TAZ9).
T1 construct: thromboxane synthetase from rabbit platelet microsomes; from tissue; host or cells: rabbit platelet microsomes
T1 sequence (G1TAZ9 1-530): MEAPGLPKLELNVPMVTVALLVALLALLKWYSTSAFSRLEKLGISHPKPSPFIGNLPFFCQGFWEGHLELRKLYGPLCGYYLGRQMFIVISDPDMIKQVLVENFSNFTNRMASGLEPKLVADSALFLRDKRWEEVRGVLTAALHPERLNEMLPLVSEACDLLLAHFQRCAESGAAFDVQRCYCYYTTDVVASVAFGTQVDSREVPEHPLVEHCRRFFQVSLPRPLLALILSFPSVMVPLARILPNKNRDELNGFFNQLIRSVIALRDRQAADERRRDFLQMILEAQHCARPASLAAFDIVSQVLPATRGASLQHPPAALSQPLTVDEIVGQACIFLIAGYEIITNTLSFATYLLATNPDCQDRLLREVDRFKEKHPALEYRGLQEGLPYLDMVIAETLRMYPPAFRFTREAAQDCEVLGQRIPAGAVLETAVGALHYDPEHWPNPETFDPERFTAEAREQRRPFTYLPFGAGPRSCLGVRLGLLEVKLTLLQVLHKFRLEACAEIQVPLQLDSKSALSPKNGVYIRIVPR
The assay can be described thus: inhibition of thromboxane synthetase from rabbit platelet microsomes. The assay is classed as biochemical. As to conditions: standard laboratory tests, read-out: molar concentration producing 50% inhibition of thromboxane synthetase. From the text:
For example, in standard laboratory tests, 1-(7-carboxy-7-methyl-2-octynyl)imidazole hydrochloride produce a 50% inhibition of thromboxane synthetase from rabbit platelet microsomes at the molar concentrations of 9×10^-9.

Where a name gives a salt, the structure may show the parent alone.

Regarding `CC(C)(CCCC#CCn1ccnc1)C(=O)O` [Example 2, 1-(7-carboxy-7-methyl-2-octynyl)imidazole hydrochloride], the IC50 came out at 9 nM.

The values are drawn from patent US4374845A, “1-(7-Carboxy-2-octynyl)imidazole derivatives, pharmaceutical compositions and use” (Kissei Pharmaceutical Co., priority 1980, dated 1983).
